Earlier results, collected in patent publication US20040136904A1, “Dry powder compositions comprising labelled particles for inhalation” (priority 2001, published 2004).

Settings: in vivo

Compound: [Na+].[O]=[Tc](=[O])(=[O])[O-] [sodium pertechnetate]
- time in which 50% is removed from the surface of the lung: ~10 min
